From patent publication US20240336601A1 (Chulalongkorn University, priority 2020, published 2024) come the findings set out here.

A value given as a limit tells only on which side of the number the result lay.

For one experiment, the target named is T1, PD-1/PD-L1 interaction (Homo sapiens, UniProt Q9NZQ7).
T1 construct: expressed in transfected cells
Put plainly: PD-1/PD-L1 blockage cell-based bioassay (Jurkat NFAT luciferase / CHO-PDL1 co-culture). To be noted: Jurkat NFAT cells co-cultured with CHO-PDL1 cells, 6 h, luminescence.

The target of experiment [1] is interaction between PD-1 and PD-L1 (Homo sapiens, UniProt Q9NZQ7). In words: PD-1/PD-L1 protein-protein interaction assay (ALPHA). In kind it is binding. To be noted: 2 nM His-tagged human PD-L1, 0.6 nM PD-1-Fc, AlphaScreen.
Chain of interaction between PD-1 and PD-L1 (Q9NZQ7 19-238 limits assumed): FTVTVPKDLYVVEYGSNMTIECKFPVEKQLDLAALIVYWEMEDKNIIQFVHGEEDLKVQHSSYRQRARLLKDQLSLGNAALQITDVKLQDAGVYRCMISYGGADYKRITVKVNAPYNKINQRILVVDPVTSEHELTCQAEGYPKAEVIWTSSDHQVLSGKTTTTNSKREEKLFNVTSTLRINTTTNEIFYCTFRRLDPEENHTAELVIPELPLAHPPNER

T1 sequence (Q9NZQ7 19-290): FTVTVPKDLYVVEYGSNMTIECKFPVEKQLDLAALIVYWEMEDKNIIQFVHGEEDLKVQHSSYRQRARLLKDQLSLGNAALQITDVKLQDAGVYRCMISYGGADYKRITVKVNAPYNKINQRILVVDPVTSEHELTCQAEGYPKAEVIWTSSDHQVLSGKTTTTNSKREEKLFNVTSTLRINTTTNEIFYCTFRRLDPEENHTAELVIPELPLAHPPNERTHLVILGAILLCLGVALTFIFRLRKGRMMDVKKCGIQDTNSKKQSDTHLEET

On to `COc1cc(-n2ncc3c(-c4cccc(-c5ccc(CN6CC7(CNC(=O)C7)C6)c(OC)n5)c4Cl)cccc32)cc(OC)c1CN1CC(C(=O)O)C1` [Example 150, 1-(4-(4-(2-chloro-3-(6-methoxy-5-((7-oxo-2,6-diazaspiro[3.4]octan-2-yl)methyl)pyridin-2-yl)phenyl)-1H-indazol-1-yl)-2,6-dimethoxybenzyl)azetidine-3-carboxylic acid], for which the IC50 – broadly, the concentration that inhibits the measured activity by half – is less than 200 nM at PD-1/PD-L1 interaction and less than 1 nM in experiment [1].
With `CCOC(=O)C1(C)CN(Cc2c(OC)cc(-n3ncc4c(-c5cccc(-c6ccc(CNC[C@@H]7CCC(=O)N7)c(OC)n6)c5Cl)cccc43)cc2OC)C1` [Example 151, ethyl (S)-1-(4-(4-(2-chloro-3-(6-methoxy-5-((((5-oxopyrrolidin-2-yl)methyl)amino)methyl)pyridin-2-yl)phenyl)-1H-indazol-1-yl)-2,6-dimethoxybenzyl)-3-methylazetidine-3-carboxylate], the 50% inhibitory concentration (IC50) at PD-1/PD-L1 interaction is less than 200 nM; in experiment [1], 1 to 10 nM.
The corresponding values for `COc1cc(-n2ncc3c(-c4cccc(-c5nc6cc(CN7CC[C@@H](C(=O)O)C7)cc(C#N)c6o5)c4C)cccc32)cc(OC)c1CN1CC[C@@H](O)C1` [Example 154, (R)-1-((7-cyano-2-(3-(1-(4-(((R)-3-hydroxypyrrolidin-1-yl)methyl)-3,5-dimethoxyphenyl)-1H-indazol-4-yl)-2-methylphenyl)benzo[d]oxazol-5-yl)methyl)pyrrolidine-3-carboxylic acid] are less than 200 nM and less than 1 nM.
For `COc1cc(-n2ncc3c(-c4cccc(-c5nc6cc(CN7CC[C@@H](C(=O)O)C7)cc(C#N)c6o5)c4C)cccc32)cc(OC)c1CN1CC[C@H](O)C1` [Example 155, (R)-1-((7-cyano-2-(3-(1-(4-(((S)-3-hydroxypyrrolidin-1-yl)methyl)-3,5-dimethoxyphenyl)-1H-indazol-4-yl)-2-methylphenyl)benzo[d]oxazol-5-yl)methyl)pyrrolidine-3-carboxylic acid], in that order: less than 200 nM and less than 1 nM.
The corresponding values for `COc1cc(-n2ncc3c(-c4cccc(-c5nc6cc(CN(C)C78CCC(C(=O)O)(CC7)CC8)cc(C#N)c6o5)c4C)cccc32)cc(OC)c1CN1CC[C@@H](O)C1` [Example 157, (R)-4-(((7-cyano-2-(3-(1-(4-((3-hydroxypyrrolidin-1-yl)methyl)-3,5-dimethoxyphenyl)-1H-indazol-4-yl)-2-methylphenyl)benzo[d]oxazol-5-yl)methyl)(methyl)amino)bicyclo[2.2.2]octane-1-carboxylic acid] are less than 200 nM and less than 1 nM.
For the compound `COc1cc(-n2ncc3c(-c4cccc(Nc5nc(C(F)F)nc6cc(CN7CC[C@@H](O)C7)cnc56)c4C)cccc32)cc(OC)c1CN1CC[C@@](C)(C(=O)O)C1` [Example 158, (R)-1-(4-(4-(3-((2-(difluoromethyl)-7-(((R)-3-hydroxypyrrolidin-1-yl)methyl)pyrido[3,2-d]pyrimidin-4-yl)amino)-2-methylphenyl)-1H-indazol-1-yl)-2,6-dimethoxybenzyl)-3-methylpyrrolidine-3-carboxylic acid], the IC50 against PD-1/PD-L1 interaction was less than 200 nM; in experiment [1], less than 1 nM.
With `COc1cc(-n2ncc3c(-c4cccc(-c5nc6cc(CN(C)C78CCC(C(=O)O)(CC7)CC8)cc(C#N)c6o5)c4C)cccc32)cc(OC)c1CN1CC(O)C1` [Example 159, 4-(((7-cyano-2-(3-(1-(4-((3-hydroxyazetidin-1-yl)methyl)-3,5-dimethoxyphenyl)-1H-indazol-4-yl)-2-methylphenyl)benzo[d]oxazol-5-yl)methyl)(methyl)amino)bicyclo[2.2.2]octane-1-carboxylic acid], the 50% inhibitory concentration (IC50) is less than 200 nM at PD-1/PD-L1 interaction and less than 1 nM in experiment [1].
`COc1cc(-c2cccc(-c3cccc4c3cnn4-c3cc(OC)c(CN4CC5(CNC(=O)C5)C4)c(OC)c3)c2Cl)cc(F)c1CN(C)C12CCC(C(=O)O)(CC1)CC2` [Example 160, 4-(((2′-chloro-3′-(1-(3,5-dimethoxy-4-((7-oxo-2,6-diazaspiro[3.4]octan-2-yl)methyl)phenyl)-1H-indazol-4-yl)-3-fluoro-5-methoxy-[1,1′-biphenyl]-4-yl)methyl)(methyl)amino)bicyclo[2.2.2]octane-1-carboxylic acid]: the IC50 at PD-1/PD-L1 interaction is less than 200 nM; in experiment [1], less than 1 nM.
For `COc1cc(-n2ncc3c(-c4cccc(Nc5nc(C(F)F)nc6cc(CN7CC[C@@H](O)C7)cnc56)c4C)cccc32)cc(OC)c1CN1CCC(C(=O)O)CC1` [Example 163, (R)-1-(4-(4-(3-((2-(difluoromethyl)-7-((3-hydroxypyrrolidin-1-yl)methyl)pyrido[3,2-d]pyrimidin-4-yl)amino)-2-methylphenyl)-1H-indazol-1-yl)-2,6-dimethoxybenzyl)piperidine-4-carboxylic acid], in that order: 201 to 2000 nM and less than 1 nM.
For the compound `COc1cc(-c2cccc(-c3cccc4c3cnn4-c3cc(OC)c(CN4CC[C@@H](O)C4)c(OC)c3)c2Cl)cc(F)c1CN(C)C12CCC(C(=O)O)(CC1)CC2` [Example 164, (R)-4-(((2′-chloro-3-fluoro-β′-(1-(4-((3-hydroxypyrrolidin-1-yl)methyl)-3,5-dimethoxyphenyl)-1H-indazol-4-yl)-5-methoxy-[1,1′-biphenyl]-4-yl)methyl)(methyl)amino)bicyclo[2.2.2]octane-1-carboxylic acid], the IC50 against PD-1/PD-L1 interaction was less than 200 nM; in experiment [1], less than 1 nM.
Regarding `COc1cc(-n2ncc3c(-c4cccc(Nc5nc(C(F)F)nc6cc(CN7CC[C@@H](C(=O)O)C7)cnc56)c4C)cccc32)cc(OC)c1CN1CC[C@@H](O)C1` [Example 165, (R)-1-((2-(difluoromethyl)-4-((3-(1-(4-(((R)-3-hydroxypyrrolidin-1-yl)methyl)-3,5-dimethoxyphenyl)-1H-indazol-4-yl)-2-methylphenyl)amino)pyrido[3,2-d]pyrimidin-7-yl)methyl)pyrrolidine-3-carboxylic acid], the IC50 against PD-1/PD-L1 interaction was less than 200 nM; in experiment [1], less than 1 nM.
In the case of `COc1cc(-n2ncc3c(-c4cccc(Nc5nc(C(F)F)nc6cc(CN7CC[C@@H](O)C7)cnc56)c4C)cccc32)cc(OC)c1CN(C)C12CCC(C(=O)O)(CC1)CC2` [Example 166, (R)-4-((4-(4-(3-((2-(difluoromethyl)-7-((3-hydroxypyrrolidin-1-yl)methyl)pyrido[3,2-d]pyrimidin-4-yl)amino)-2-methylphenyl)-1H-indazol-1-yl)-2,6-dimethoxybenzyl)(methyl)amino)bicyclo[2.2.2]octane-1-carboxylic acid], the 50% inhibitory concentration (IC50) was less than 200 nM against PD-1/PD-L1 interaction and less than 1 nM in experiment [1].
